Experimental data published in the supplement of paper PMC10307832.

Tests used:
Assay in all cases: relative viability (nuclei count vs DMSO), 5 days (fraction); higher = more cells survive
[1] = compound: C[C@@]1(C(=O)Nc2ccc(F)nc2)CCCN1c1nc(Nc2cc(C3CC3)n[nH]2)c2cccn2n1 + O=C(c1cc(Cc2n[nH]c(=O)c3ccccc23)ccc1F)N1CCN(C(=O)C2CC2)CC1 [Olaparib] (partner 8 µM)
Procedure, shortened: (§1)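 Lung cancer cell lines were pin-tool dosed in 1536-well plates on the day after seeding, with either a lone drug or a fixed anchor-drug dose plus five library-drug doses (not always all listed) in √10 steps. Nuclei were counted on 4× images after 5 days. Relative viability is the ratio of treated-well to vehicle-well nuclei counts, with each value a median of duplicate plates.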

Motesanib + Tozasertib = compound: CC1(C)CNc2cc(NC(=O)c3cccnc3NCc3ccncc3)ccc21 [Motesanib] + Cc1cc(Nc2cc(N3CCN(C)CC3)nc(Sc3ccc(NC(=O)C4CC4)cc3)n2)n[nH]1 [Tozasertib] (partner 0.1 µM)
Procedure, shortened: as §1

[2] = compound: C[C@@]1(C(=O)Nc2ccc(F)nc2)CCCN1c1nc(Nc2cc(C3CC3)n[nH]2)c2cccn2n1 + CC(=O)c1c(C)c2cnc(Nc3ccc(N4CCNCC4)cn3)nc2n(C2CCCC2)c1=O [Palbociclib] (partner 0.5 µM)
Procedure, shortened: as §1

[3] = compound: C[C@@]1(C(=O)Nc2ccc(F)nc2)CCCN1c1nc(Nc2cc(C3CC3)n[nH]2)c2cccn2n1 + CS(=O)(=O)CCNCc1ccc(-c2ccc3ncnc(Nc4ccc(OCc5cccc(F)c5)c(Cl)c4)c3c2)o1 [Lapatinib] (partner 2 µM)
Procedure, shortened: as §1

Question: For UMC-11, which relative viability ([1]; first compound 0.04 µM) is on record?
Answer: Its relative viability is 0.376.

Question: And the relative viability ([1]; first compound 0.1265 µM)?
Answer: The relative viability was 0.316.

Question: And the relative viability ([1]; first compound 0.4 µM)?
Answer: The relative viability was 0.336.

Question: What about the relative viability ([1]; first compound 1.265 µM) of the same cell line?
Answer: Its relative viability is 0.426.

Question: What about the relative viability (Motesanib + Tozasertib; first compound 0.01 µM) of the same cell line?
Answer: Its relative viability is 0.205.

Question: And the relative viability (Motesanib + Tozasertib; first compound 0.03162 µM)?
Answer: Its relative viability is 0.213.

Question: What about the relative viability (Motesanib + Tozasertib; first compound 0.1 µM) of the same cell line?
Answer: The relative viability was 0.216.

Question: And the relative viability (Motesanib + Tozasertib; first compound 0.3162 µM)?
Answer: Its relative viability is 0.207.

Question: And the relative viability (Motesanib + Tozasertib; first compound 1 µM)?
Answer: Its relative viability is 0.228.

Question: And the relative viability ([2]; first compound 0.04 µM)?
Answer: The relative viability was 0.31.

Question: What about the relative viability ([2]; first compound 0.1265 µM) of the same cell line?
Answer: Its relative viability is 0.312.

Question: What about the relative viability ([2]; first compound 0.4 µM) of the same cell line?
Answer: Its relative viability is 0.32.

Question: What about the relative viability ([2]; first compound 1.265 µM) of the same cell line?
Answer: The relative viability was 0.273.

Question: What about the relative viability ([3]; first compound 0.04 µM) of the same cell line?
Answer: Its relative viability is 1.02.

Question: What about the relative viability ([3]; first compound 0.1265 µM) of the same cell line?
Answer: The relative viability was 1.02.

Question: What about the relative viability ([3]; first compound 0.4 µM) of the same cell line?
Answer: The relative viability was 0.826.

Question: What about the relative viability ([3]; first compound 1.265 µM) of the same cell line?
Answer: The relative viability was 0.805.
